Where “and” joins values, the source holds several entries; their conditions need not be identical. Identical values can stand only once. Toxic doses and inconclusive results are not listed.
System: CD2F1 mice, L1210 leukemia ip, survival T/C
Experiment: NCI In Vivo Anticancer Drug Screen. Data for tumor model L1210 Leukemia (intraperitoneal) in CD2F1 (CDF1) mice
Details: endpoint: mean survival time, higher = longer survival
Method in brief: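 Implant tumor; dose compound or vehicle; measure endpoint in both groups; report treated divided by control.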

Nc1nc(=S)c2ncn(C3CC(O)C(CO)O3)c2[nH]1 (stereo unspecified)
T/C (dose: 1.25 mg/kg/injection, schedule: Q01DX005 (ip), vehicle: saline): 150 % of control
T/C (dose: 2.5 mg/kg/injection, schedule: Q01DX001 (ip), vehicle: steriod suspending solution): 123 % of control
T/C (dose: 4.0 mg/kg/injection, schedule: Q01DX009 (sc), vehicle: saline): 108 % of control
T/C (dose: 5.0 mg/kg/injection, schedule: Q01DX005 (ip), vehicle: saline with Tween-80): 154 % of control
T/C (dose: 5.0 mg/kg/injection, schedule: Q01DX005 (oral), vehicle: saline): 160 % of control
T/C (dose: 5.0 mg/kg/injection, schedule: Q04DX003 (ip), vehicle: water): 153 % of control
T/C (dose: 8.0 mg/kg/injection, schedule: Q01DX009 (ip), vehicle: saline): 151 % of control
T/C (dose: 8.0 mg/kg/injection, schedule: Q01DX009 (sc), vehicle: saline): 106 % of control
T/C (dose: 10.0 mg/kg/injection, schedule: Q01DX005 (ip), vehicle: saline with Tween-80): 120 % of control
T/C (dose: 10.0 mg/kg/injection, schedule: Q01DX005 (ip), vehicle: saline): 151 % of control
T/C (dose: 10.0 mg/kg/injection, schedule: Q01DX005 (oral), vehicle: saline): 156 % of control
T/C (dose: 10.0 mg/kg/injection, schedule: Q04DX003 (ip), vehicle: suspension in saline): 154 % of control
T/C (dose: 10.0 mg/kg/injection, schedule: Q04DX003 (iv), vehicle: suspension in saline): 177 % of control
T/C (dose: 16.0 mg/kg/injection, schedule: Q01DX005 (ip), vehicle: saline): 161 % of control
T/C (dose: 16.0 mg/kg/injection, schedule: Q01DX009 (ip), vehicle: saline): 170 % of control
T/C (dose: 16.0 mg/kg/injection, schedule: Q01DX009 (ip), vehicle: water): 108 % of control
T/C (dose: 16.0 mg/kg/injection, schedule: Q01DX009 (sc), vehicle: saline): 151 % of control
T/C (dose: 20.0 mg/kg/injection, schedule: Q01DX001 (sc), vehicle: saline): 121 % of control
T/C (dose: 20.0 mg/kg/injection, schedule: Q01DX005 (oral), vehicle: saline): 151 % of control
T/C (dose: 20.0 mg/kg/injection, schedule: Q03HX008 (ip), vehicle: saline): 152 % of control
T/C (dose: 20.0 mg/kg/injection, schedule: Q03HX024 (ip), vehicle: saline): 150 % of control
T/C (dose: 20.0 mg/kg/injection, schedule: Q04DX003 (ip), vehicle: saline): 157 % of control
T/C (dose: 20.0 mg/kg/injection, schedule: Q04DX003 (ip), vehicle: suspension in saline): 159 % of control
T/C (dose: 20.0 mg/kg/injection, schedule: Q04DX003 (iv), vehicle: suspension in saline): 159 % of control
T/C (dose: 24.0 mg/kg/injection, schedule: Q01DX009 (ip), vehicle: water): 116 % of control and 103 % of control
T/C (dose: 24.0 mg/kg/injection, schedule: Q04DX003 (ip), vehicle: water): 118 % of control
T/C (dose: 32.0 mg/kg/injection, schedule: Q01DX005 (ip), vehicle: saline): 152 % of control
T/C (dose: 32.0 mg/kg/injection, schedule: Q01DX009 (ip), vehicle: saline): 157 % of control
T/C (dose: 32.0 mg/kg/injection, schedule: Q01DX009 (sc), vehicle: saline): 150 % of control
T/C (dose: 36.0 mg/kg/injection, schedule: Q01DX009 (ip), vehicle: water): 103 % of control
T/C (dose: 36.0 mg/kg/injection, schedule: Q04DX003 (ip), vehicle: water): 111 % of control
T/C (dose: 37.5 mg/kg/injection, schedule: Q04DX003 (ip), vehicle: clinical formulation): 102 % of control
T/C (dose: 37.5 mg/kg/injection, schedule: Q04DX003 (ip), vehicle: saline): 163 % of control
T/C (dose: 40.0 mg/kg/injection, schedule: Q03HX008 (ip), vehicle: saline): 157 % of control
T/C (dose: 40.0 mg/kg/injection, schedule: Q03HX016 (ip), vehicle: saline): 156 % of control
T/C (dose: 40.0 mg/kg/injection, schedule: Q03HX024 (ip), vehicle: saline): 159 % of control
T/C (dose: 40.0 mg/kg/injection, schedule: Q04DX003 (ip), vehicle: saline): 178 % of control
T/C (dose: 40.0 mg/kg/injection, schedule: Q04DX003 (ip), vehicle: suspension in saline): 151 % of control
T/C (dose: 40.0 mg/kg/injection, schedule: Q04DX003 (iv), vehicle: suspension in saline): 189 % of control
T/C (dose: 40.0 mg/kg/injection, schedule: Q08DX002 (ip), vehicle: saline): 152 % of control
T/C (dose: 50.0 mg/kg/injection, schedule: Q01DX009 (ip), vehicle: water): 107 % of control
T/C (dose: 50.0 mg/kg/injection, schedule: Q04DX003 (ip), vehicle: water): 120 % of control and 103 % of control
T/C (dose: 64.0 mg/kg/injection, schedule: Q01DX009 (ip), vehicle: saline): 123 % of control
T/C (dose: 75.0 mg/kg/injection, schedule: Q04DX003 (ip), vehicle: clinical formulation): 111 % of control
T/C (dose: 75.0 mg/kg/injection, schedule: Q04DX003 (ip), vehicle: saline): 154 % of control
T/C (dose: 76.0 mg/kg/injection, schedule: Q01DX009 (ip), vehicle: water): 115 % of control
T/C (dose: 76.0 mg/kg/injection, schedule: Q04DX003 (ip), vehicle: water): 122 % of control and 103 % of control
T/C (dose: 80.0 mg/kg/injection, schedule: Q01DX001 (ip), vehicle: saline): 154 % of control
T/C (dose: 80.0 mg/kg/injection, schedule: Q03HX008 (ip), vehicle: saline): 161 % of control
T/C (dose: 80.0 mg/kg/injection, schedule: Q03HX016 (ip), vehicle: saline): 168 % of control
T/C (dose: 80.0 mg/kg/injection, schedule: Q03HX024 (ip), vehicle: saline): 161 % of control
T/C (dose: 80.0 mg/kg/injection, schedule: Q04DX003 (ip), vehicle: saline): 174 % of control
T/C (dose: 80.0 mg/kg/injection, schedule: Q04DX003 (ip), vehicle: suspension in saline): 154 % of control
T/C (dose: 80.0 mg/kg/injection, schedule: Q04DX003 (iv), vehicle: suspension in saline): 162 % of control
T/C (dose: 80.0 mg/kg/injection, schedule: Q08DX002 (ip), vehicle: saline): 154 % of control
T/C (dose: 96.0 mg/kg/injection, schedule: Q01DX009 (oral), vehicle: saline): 115 % of control
T/C (dose: 116.0 mg/kg/injection, schedule: Q01DX005 (ip), vehicle: water): 117 % of control
T/C (dose: 116.0 mg/kg/injection, schedule: Q01DX009 (ip), vehicle: water): 150 % of control
T/C (dose: 116.0 mg/kg/injection, schedule: Q04DX003 (ip), vehicle: water): 106 % of control
T/C (dose: 150.0 mg/kg/injection, schedule: Q04DX003 (ip), vehicle: saline): 152 % of control
T/C (dose: 160.0 mg/kg/injection, schedule: Q03HX008 (ip), vehicle: saline): 160 % of control
T/C (dose: 160.0 mg/kg/injection, schedule: Q03HX016 (ip), vehicle: saline): 174 % of control
T/C (dose: 160.0 mg/kg/injection, schedule: Q03HX024 (ip), vehicle: saline): 155 % of control
T/C (dose: 160.0 mg/kg/injection, schedule: Q04DX003 (ip), vehicle: saline): 162 % of control
T/C (dose: 160.0 mg/kg/injection, schedule: Q08DX002 (ip), vehicle: saline): 158 % of control and 152 % of control
T/C (dose: 176.0 mg/kg/injection, schedule: Q01DX005 (ip), vehicle: water): 105 % of control
T/C (dose: 176.0 mg/kg/injection, schedule: Q04DX003 (ip), vehicle: water): 121 % of control
T/C (dose: 192.0 mg/kg/injection, schedule: Q01DX009 (oral), vehicle: saline): 106 % of control
T/C (dose: 240.0 mg/kg/injection, schedule: Q01DX001 (oral), vehicle: saline): 152 % of control
T/C (dose: 266.0 mg/kg/injection, schedule: Q01DX005 (ip), vehicle: water): 88 % of control
T/C (dose: 266.0 mg/kg/injection, schedule: Q04DX003 (ip), vehicle: water): 115 % of control
T/C (dose: 300.0 mg/kg/injection, schedule: Q04DX003 (ip), vehicle: saline): 101 % of control
T/C (dose: 320.0 mg/kg/injection, schedule: Q01DX001 (oral), vehicle: saline): 152 % of control
T/C (dose: 320.0 mg/kg/injection, schedule: Q03HX008 (ip), vehicle: saline): 162 % of control
T/C (dose: 320.0 mg/kg/injection, schedule: Q03HX016 (ip), vehicle: saline): 158 % of control
T/C (dose: 320.0 mg/kg/injection, schedule: Q04DX003 (ip), vehicle: suspension in saline): 108 % of control
